# US20060264508A1, “Modulation of ocular growth and myopia by gaba drugs” (priority 2001, published 2006)
# “And” between values parts separate entries of the source, which are not always exact repeats. Identical values can stand only once. “Also recorded” adds a separate entry of the source. Counter-ions that a name gives are not always drawn. Like-named read-outs stand apart in the source and are kept apart here.
# How the values were obtained:
# [1] = system: goggled eyes (form-deprivation myopia); conditions: daily intravitreal injection, result in words
# non-goggled eyes = format: in vivo, White leghorn chicks; conditions: for Equatorial diameter (calipers) / axial length calipers / axial length ultrasound / refraction / vitreous chamber depth (ultrasound): daily intravitreal dose(s) at which drug-treated differ from contralateral vehicle-treated eyes (P<0.05, Tukey test); for effect on lens thickness / anterior chamber depth, drug-treated vs vehicle-treated eyes: primary outcome comparison
# Description: Chicks were anesthetized with inhalation ether for all goggle applications and drug injections. The experimental eye was the right eye in half of the chicks, and the left eye in the other half of the chicks, assigned in an alternating order within each group. Form-deprivation myopia was induced by attaching a unilateral translucent white plastic goggle to the periorbital feathers with cyanoacrylate glue. All research conformed with the ARVO Resolution on the Use of Animals in Ophthalmic and Vision Research.
# All goggle applications and/or drug injections began when the chicks reached one week of age. At about four hours into the light phase, a 10 μl intravitreal injection of either drug+vehicle or vehicle alone was given under aseptic conditions to the goggled or experimental non-goggled eye, with all contralateral eyes concurrently receiving vehicle injections.
# On this day, the animals received no intraocular injections. […] While still under general anesthesia, the chicks were decapitated; and the axial and equatorial dimensions of enucleated eyes were measured with digital calipers. As the coronal profile of the chick eye is elliptical, the equatorial dimension was reported as the mean of the shortest and longest equatorial dimensions.
# For goggled chicks, the primary measure of outcome was the drug effect on the ocular response to wearing a goggle, and comparisons of individual doses to each other and to vehicle-treated controls for each drug. Differences in refraction and each size measurement between goggled and contralateral eyes were assessed by one-way analysis of variance (ANOVA). For non-goggled chicks, the primary outcome measure was comparison of drug-treated to contralateral vehicle-treated eyes using a two-way repeated measures ANOVA (one factor replication, using eye as the replicated factor) for refractions and measurements.
# The statistical outcomes with the two-way ANOVA are mainly described by the drug-treated to contralateral eye comparison. […] When the ANOVA assumptions of normality or equal variance were not met, the corresponding ANOVA on ranks was used. […] The Figures show the P values when the overall ANOVA reached a significance level of at least P<0.05, and the post-hoc tests for within group comparisons appear in the Tables that follow.
# [2] = non-goggled eyes, drug-treated vs contralateral vehicle-treated eyes, result in words
# [3] = non-goggled chicks receiving the 10 μg dose, mean±S.E.M.
# [4] = non-goggled chicks, 10 μg dose, mean±S.E.M.
# [5] = non-goggled chicks, contralateral vehicle-treated eyes
# [6] = non-goggled chicks, drug-treated eyes
# [7] = non-goggled eyes, result in words
# [8] = non-goggled eyes, drug-treated vs contralateral vehicle-treated eyes, result in words, listed as muscimol, hydrobromide
Compound,"effect on axial dimensions (axial length, vitreous chamber depth; ultrasound or calipers) of goggled eyes [1]",effect on myopic refraction of goggled eyes [1],overall effect on form-deprivation myopia (refraction and size measurements) of goggled eyes [1],Equatorial diameter (calipers) (non-goggled eyes; non-goggled eyes),axial length calipers (non-goggled eyes; non-goggled eyes),axial length ultrasound (non-goggled eyes; non-goggled eyes),refraction (non-goggled eyes; non-goggled eyes),vitreous chamber depth (ultrasound) (non-goggled eyes; non-goggled eyes),effect on axial growth / axial length and vitreous chamber depth of non-goggled eyes (non-goggled eyes; [2]),effect on refraction of non-goggled eyes (non-goggled eyes; [2]),effect on equatorial diameter / equatorial expansion of goggled eyes (calipers) [1],effect on equatorial diameter of non-goggled eyes (non-goggled eyes; [2]),also measured
"NCC(O)(CS(=O)(=O)O)c1ccc(Cl)cc1 (centres unmarked) [2OH-saclofen, 2-hydroxysaclofen]",none of the tendencies of either drug to reduce ocular dimensions by ultrasound or calipers reached statistical significance,reduced the myopic refractions,–,–,–,–,–,–,–,–,–,–,–
"NC[C@H](CC(=O)O)c1ccc(Cl)cc1 [Baclofen, R(+)-baclofen]",neither the ultrasound nor the caliper measurements revealed statistically significant growth inhibition,partially reduced the myopic refractive error,weak anti-myopia effect,"n.s. (n.s., P ≧ 0.05 by ANOVA)","* (P < 0.05 by ANOVA for drug-treated vs. contralateral eyes, but no specific pair-wise comparison identified by the Tukey test.)","n.s. (n.s., P ≧ 0.05 by ANOVA)","n.s. (n.s., P ≧ 0.05 by ANOVA)",100 µg,modest deepening of the vitreous chamber,"None of the other effects of baclofen on the non-goggled eyes, including refractions (data not shown), reached statistical significance",–,–,–
"NC/C=C\C(=O)O [CACA, cis-4-aminocrotomc acid]",not accompanied by any statistically identifiable changes in axial measurements,"modest, perhaps biphasic effect",none of the size measurements were altered,"n.s. (n.s., P ≧ 0.05 by ANOVA)","n.s. (n.s., P ≧ 0.05 by ANOVA)",50 µg,"n.s. (n.s., P ≧ 0.05 by ANOVA)","n.s. (n.s., P ≧ 0.05 by ANOVA)",slightly stimulated axial length by ultrasound; also recorded: stimulate axial growth to a modest degree,not affecting refraction; also recorded: without altering refraction,no change in the equatorial dimension,without altering refraction or affecting equatorial diameter,"anterior chamber depth of contralateral vehicle-treated eyes (non-goggled eyes; [3]): 1.31±0.03 mm; lens thickness of contralateral vehicle-treated eyes (non-goggled eyes; [3]): 2.22±0.02 mm; anterior chamber depth of drug-treated eyes (non-goggled eyes; [4]): 1.32±0.03 mm; lens thickness of drug-treated eyes (non-goggled eyes; [4]): 2.22±0.02 mm; lens thinner in contralateral vehicle-treated eyes at 10 μg than in the other two cohorts (100 or 200 μg) (non-goggled eyes; [5]): 0.10 mm; anterior chambers deeper at the 10 μg dose than at the higher doses (non-goggled eyes; non-goggled chicks, drug- and vehicle-treated eyes, vs 50, 100 or 200 μg): 0.08-0.14 mm; lens thinner in drug-treated eyes at 10 μg than at the 100 or 200 μg doses (non-goggled eyes; [6]): 0.16 mm; effect on lens thickness / anterior chamber depth, drug-treated vs vehicle-treated eyes (non-goggled eyes; [7]): did not affect lens thickness or anterior chamber depth"
"CCOC(OCC)P(=O)(O)CCCN [CGP35348, (3-aminopropyl)(diethoxy-methyl)phosphinic acid]",–,–,no statistical effect,–,–,–,–,–,–,–,–,–,–
"NCCCP(=O)(O)CC1CCCCC1 [CGP46381, (3-aminopropyl)(cyclo-hexylmethyl)phosphinic acid]","inhibited the myopic refractive shift, the axial and vitreous chamber elongation",inhibited the myopic refractive shift,potent anti-myopia effects; also recorded: inhibiting myopia and limiting axial vitreous chamber and equatorial expansion,"n.s. (n.s., P ≧ 0.05 by ANOVA)","n.s. (n.s., P ≧ 0.05 by ANOVA)","n.s. (n.s., P ≧ 0.05 by ANOVA)",–,100 µg,slightly enhanced vitreous chamber length,did not exert statistically identifiable changes,"inhibited the myopic refractive shift, the axial and vitreous chamber elongation, and the equatorial expansion",did not exert statistically identifiable changes,"lens thickness of contralateral vehicle-treated eyes (non-goggled eyes; [3]): 2.26±0.03 mm; lens thickness of drug-treated eyes (non-goggled eyes; [4]): 2.27±0.04 mm; lens thicker in vehicle-treated eyes at 10 μg than at the 100 μg dose (non-goggled eyes; [5]): 0.06 mm; lens thicker in drug-treated eyes at 10 μg than at the 100 μg dose (non-goggled eyes; [6]): 0.07 mm; effect on lens thickness / anterior chamber depth, drug-treated vs vehicle-treated eyes (non-goggled eyes; [7]): no influence on lens thickness"
"NCc1cc(=O)[nH]o1 [Muscimol, Muscimol hydrobromide]",–,–,"did not affect refraction, ultrasound or caliper measurements",–,–,–,–,–,–,–,–,–,"refraction of contralateral vehicle-treated eyes (non-goggled eyes; non-goggled chicks, 5 μg daily dose to the other eye, mean±S.E.M.): 0.86±0.58 D; refraction of contralateral vehicle-treated eyes (non-goggled eyes; non-goggled chicks, 10 μg daily dose to the other eye, mean±S.E.M.): +0.11±0.82 D; refraction of contralateral vehicle-treated eyes (non-goggled eyes; non-goggled chicks, 50 μg daily dose to the other eye, mean±S.E.M.): 1.78±1.21 D; refraction of contralateral vehicle-treated eyes (non-goggled eyes; non-goggled chicks, 200 μg daily dose to the other eye, mean±S.E.M.): 3.82±0.83 D; dose of maximum effect on refraction (shift to myopia) of non-goggled eyes (non-goggled eyes; non-goggled eyes, daily intravitreal injection): 50 µg; effect on refraction of non-goggled eyes (non-goggled eyes; non-goggled eyes, drug-treated vs contralateral vehicle-treated eyes, result in words, hydrobromide): induces a statistically significant myopic shift in refraction; effect on axial growth / axial length and vitreous chamber depth of non-goggled eyes (non-goggled eyes; [8]): stimulated axial growth as measured by either ultrasound or calipers, and deepened the vitreous chamber; also recorded: increasing not only axial and vitreous chamber lengths; effect on equatorial diameter of non-goggled eyes (non-goggled eyes; [8]): increased the equatorial diameter; also recorded: expanding the equatorial diameter; effect on refraction of non-goggled eyes (non-goggled eyes; [8]): shifted the refraction to myopia; also recorded: statistically significant shift in refraction"
"CC1(C)CO[C@@H](CC(=O)O)CN1 [SCH50911, (+)-(2S)-5,5-dimethyl-2-morpholineacetic acid]",none of the tendencies of either drug to reduce ocular dimensions by ultrasound or calipers reached statistical significance,reduced the myopic refractions,–,–,–,–,–,–,–,–,–,–,–
"NC/C=C/C(=O)O [TACA, Trans-4-aminocrotonic acid]",–,–,no statistically significant effects,–,–,–,–,–,–,–,–,–,overall effect on refraction and ocular size / eye growth of non-goggled eyes (non-goggled eyes; [2]): influenced neither refraction nor ocular size measurements
"CP(=O)(O)C1=CCNCC1 [TPMPA, (1,2,5,6-tetraliydro-pyridine-4-yl) methyiphosphinic acid]","blocked the axial and vitreous chamber elongation as measured by ultrasound; also recorded: effects on axial growth as measured by calipers, did not reach statistical significance; also recorded: significantly reduces the axial length of the eye and vitreous chamber depth",reduced the myopic refraction; also recorded: largely eliminates the myopic refractive shift,potent anti-myopia effects,–,200 & μg and 100 μg,10 µg,"§ (P < 0.05 by ANOVA for overall dose effect, but no significant effect identified for drug-treated vs. contralateral eyes; no specific pairwise comparison identified by the Tukey test.)","* (P < 0.05 by ANOVA for drug-treated vs. contralateral eyes, but no specific pair-wise comparison identified by the Tukey test.)",stimulated both axial growth and vitreous chamber length; also recorded: stimulates axial elongation and vitreous chamber depth,slight myopic refractive shift; also recorded: without altering refraction,"blocked the axial and vitreous chamber elongation as measured by ultrasound, and the equatorial expansion",reduced the equatorial diameter; also recorded: equatorial dimension actually diminished,–
